In patent US20230085307A1, “PYRIDAZINONE COMPOUND AND HERBICIDE” (NISSAN CHEMICAL CORPORATION, priority 2019, published 2023):

Experiments:
[1] = tested on: barnyard grass; test: Test Example 3: herbicidal effect by foliage application, Wagner pot (Table 18, symbol H); assay type: in vivo, barnyard grass (Echinochloa crus-galli); conditions: 320 g/ha
Outline: (§1)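 Plants were sown in alluvial soil held under 0.1–0.5 cm standing water and grown 14 days in a greenhouse at 25–30 °C. An emulsifiable formulation, water-diluted to the set dose, was then sprayed onto the foliage, and effects were scored three weeks later using previously defined criteria.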

[2] = tested on: green foxtail; test: Test Example 5: herbicidal effect by foliage application, plastic box (Table 20, symbol G); assay type: in vivo, green foxtail (Setaria viridis); conditions: foliage application, 320 g/ha, three weeks after application
Outline: (§2)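 Foliar spray test: emulsion formulation diluted in water to a set application rate, sprayed onto 14-day-old plants raised in diluvial soil at 25° C to 30° C under glass. Both herbicidal effect and crop effect rated visually three weeks later.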

[3] = tested on: blackgrass; test: Test Example 4: herbicidal effect by soil treatment (Table 19, symbol J); assay type: in vivo, blackgrass (Alopecurus myosuroides); conditions: amount of applied herbicide 320 g/ha
Outline: (§3)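 Herbicidal effect was rated 3 weeks after treatment, using the scoring criteria of an earlier test. The compound, formulated as an emulsion and diluted in water to a set herbicide amount, had been sprayed uniformly on soil over freshly sown seeds. Growth took place in a greenhouse at 25° C. to 30° C.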

[4] = tested on: barnyard grass; test: Test Example 4: herbicidal effect by soil treatment (Table 19, symbol H); assay type: in vivo, barnyard grass (Echinochloa crus-galli); conditions: amount of applied herbicide 320 g/ha
Outline: as §3

[5] = tested on: southern crabgrass; test: Test Example 5: herbicidal effect by foliage application, plastic box (Table 20, symbol F); assay type: in vivo, southern crabgrass (Digitaria ciliaris); conditions: foliage application, 320 g/ha, three weeks after application
Outline: as §2

[6] = tested on: lambsquarters; test: Test Example 4: herbicidal effect by soil treatment (Table 19, symbol O); assay type: in vivo, lambsquarters (Chenopodium album); conditions: amount of applied herbicide 320 g/ha
Outline: as §3

[7] = tested on: chickweed; test: Test Example 4: herbicidal effect by soil treatment (Table 19, symbol P); assay type: in vivo, common chickweed (Stellaria media); conditions: amount of applied herbicide 320 g/ha
Outline: as §3

[8] = tested on: redroot pigweed; test: Test Example 4: herbicidal effect by soil treatment (Table 19, symbol N); assay type: in vivo, redroot pigweed (Amaranthus retroflexus); conditions: amount of applied herbicide 320 g/ha
Outline: as §3

[9] = tested on: wild oat; test: Test Example 5: herbicidal effect by foliage application, plastic box (Table 20, symbol I); assay type: in vivo, wild oat (Avena fatua); conditions: foliage application, 320 g/ha, three weeks after application
Outline: as §2

[10] = tested on: windgrass; test: Test Example 5: herbicidal effect by foliage application, plastic box (Table 20, symbol L); assay type: in vivo, windgrass (Apera spica-venti); conditions: foliage application, 320 g/ha, three weeks after application
Outline: as §2

[11] = tested on: false cleavers; test: Test Example 5: herbicidal effect by foliage application, plastic box (Table 20, symbol Q); assay type: in vivo, false cleavers (Galium spurium); conditions: foliage application, 320 g/ha, three weeks after application
Outline: as §2

[12] = tested on: Chinese sprangletop; test: Test Example 3: herbicidal effect by foliage application, Wagner pot (Table 18, symbol D); assay type: in vivo, chinese sprangletop (Leptochloa chinensis); conditions: 320 g/ha
Outline: as §1

[13] = tested on: rice flat sedge; test: Test Example 3: herbicidal effect by foliage application, Wagner pot (Table 18, symbol E); assay type: in vivo, rice flat sedge (Cyperus iria); conditions: 320 g/ha
Outline: as §1

[14] = tested on: Italian ryegrass; test: Test Example 5: herbicidal effect by foliage application, plastic box (Table 20, symbol K); assay type: in vivo, Italian ryegrass (Lolium multiflorum); conditions: foliage application, 320 g/ha, three weeks after application
Outline: as §2

[15] = tested on: persian speedwell; test: Test Example 4: herbicidal effect by soil treatment (Table 19, symbol R); assay type: in vivo, Persian speedwell (Veronica persica); conditions: amount of applied herbicide 320 g/ha
Outline: as §3

[16] = tested on: barnyard grass; test: Test Example 5: herbicidal effect by foliage application, plastic box (Table 20, symbol H); assay type: in vivo, barnyard grass (Echinochloa crus-galli); conditions: foliage application, 320 g/ha, three weeks after application
Outline: as §2

[17] = tested on: Italian ryegrass; test: Test Example 4: herbicidal effect by soil treatment (Table 19, symbol K); assay type: in vivo, Italian ryegrass (Lolium multiflorum); conditions: amount of applied herbicide 320 g/ha
Outline: as §3

[18] = tested on: windgrass; test: Test Example 4: herbicidal effect by soil treatment (Table 19, symbol L); assay type: in vivo, windgrass (Apera spica-venti); conditions: amount of applied herbicide 320 g/ha
Outline: as §3

[19] = tested on: blackgrass; test: Test Example 5: herbicidal effect by foliage application, plastic box (Table 20, symbol J); assay type: in vivo, blackgrass (Alopecurus myosuroides); conditions: foliage application, 320 g/ha, three weeks after application
Outline: as §2

[20] = tested on: wild oat; test: Test Example 4: herbicidal effect by soil treatment (Table 19, symbol I); assay type: in vivo, wild oat (Avena fatua); conditions: amount of applied herbicide 320 g/ha
Outline: as §3

[21] = tested on: velvetleaf; test: Test Example 5: herbicidal effect by foliage application, plastic box (Table 20, symbol M); assay type: in vivo, velvetleaf (Abutilon theophrasti); conditions: foliage application, 320 g/ha, three weeks after application
Outline: as §2

[22] = tested on: lambsquarters; test: Test Example 5: herbicidal effect by foliage application, plastic box (Table 20, symbol O); assay type: in vivo, lambsquarters (Chenopodium album); conditions: foliage application, 320 g/ha, three weeks after application
Outline: as §2

[23] = tested on: green foxtail; test: Test Example 4: herbicidal effect by soil treatment (Table 19, symbol G); assay type: in vivo, green foxtail (Setaria viridis); conditions: amount of applied herbicide 320 g/ha
Outline: as §3

[24] = tested on: velvetleaf; test: Test Example 4: herbicidal effect by soil treatment (Table 19, symbol M); assay type: in vivo, velvetleaf (Abutilon theophrasti); conditions: amount of applied herbicide 320 g/ha
Outline: as §3

[25] = tested on: southern crabgrass; test: Test Example 4: herbicidal effect by soil treatment (Table 19, symbol F); assay type: in vivo, southern crabgrass (Digitaria ciliaris); conditions: amount of applied herbicide 320 g/ha
Outline: as §3

[26] = tested on: persian speedwell; test: Test Example 5: herbicidal effect by foliage application, plastic box (Table 20, symbol R); assay type: in vivo, Persian speedwell (Veronica persica); conditions: foliage application, 320 g/ha, three weeks after application
Outline: as §2

CCOc1cc2sc(-c3ccccc3OC)c(-c3c(O)c(C)nn(C)c3=O)c2cc1F [5-065]
herbicidal effect on barnyard grass (H) [1]: 4 (Herbicidal rate of 70% or more and less than 90%)
herbicidal effect on green foxtail (G) [2]: 5 (Herbicidal rate of 90% or more (almost completely withered))
J: blackgrass, herbicidal effect grade [3]: 3 (Herbicidal rate of 40% or more and less than 70%)
H: barnyard grass, herbicidal effect grade [4]: 4 (Herbicidal rate of 70% or more and less than 90%)
herbicidal effect on southern crabgrass (F) [5]: 4 (Herbicidal rate of 70% or more and less than 90%)
O: lambsquarters, herbicidal effect grade [6]: 5 (Herbicidal rate of 90% or more (almost completely withered))
P: chickweed, herbicidal effect grade [7]: 5 (Herbicidal rate of 90% or more (almost completely withered))
N: redroot pigweed, herbicidal effect grade [8]: 5 (Herbicidal rate of 90% or more (almost completely withered))
herbicidal effect on wild oat (I) [9]: 4 (Herbicidal rate of 70% or more and less than 90%)
herbicidal effect on windgrass (L) [10]: 5 (Herbicidal rate of 90% or more (almost completely withered))
herbicidal effect on false cleavers (Q) [11]: 5 (Herbicidal rate of 90% or more (almost completely withered))
herbicidal effect on Chinese sprangletop (D) [12]: 3 (Herbicidal rate of 40% or more and less than 70%)
herbicidal effect on rice flat sedge (E) [13]: 4 (Herbicidal rate of 70% or more and less than 90%)
herbicidal effect on Italian ryegrass (K) [14]: 4 (Herbicidal rate of 70% or more and less than 90%)
R: persian speedwell, herbicidal effect grade [15]: 5 (Herbicidal rate of 90% or more (almost completely withered))
herbicidal effect on barnyard grass (H) [16]: 5 (Herbicidal rate of 90% or more (almost completely withered))
K: Italian ryegrass, herbicidal effect grade [17]: 3 (Herbicidal rate of 40% or more and less than 70%)
L: windgrass, herbicidal effect grade [18]: 3 (Herbicidal rate of 40% or more and less than 70%)
herbicidal effect on blackgrass (J) [19]: 4 (Herbicidal rate of 70% or more and less than 90%)
I: wild oat, herbicidal effect grade [20]: 1 (Herbicidal rate of 5% or more and less than 20%)
herbicidal effect on velvetleaf (M) [21]: 5 (Herbicidal rate of 90% or more (almost completely withered))
herbicidal effect on lambsquarters (O) [22]: 5 (Herbicidal rate of 90% or more (almost completely withered))
G: green foxtail, herbicidal effect grade [23]: 4 (Herbicidal rate of 70% or more and less than 90%)
M: velvetleaf, herbicidal effect grade [24]: 2 (Herbicidal rate of 20% or more and less than 40%)
F: southern crabgrass, herbicidal effect grade [25]: 0 (Herbicidal rate of 5% or less (almost no effect))
herbicidal effect on persian speedwell (R) [26]: 5 (Herbicidal rate of 90% or more (almost completely withered))
